The values that follow come from ChEMBL document CHEMBL1154419, “Pharmacodynamic effects of telavancin against methicillin-resistant and methicillin-susceptible Staphylococcus aureus strains in the presence of human albumin or serum and in an in vitro kinetic model” (Antimicrob Agents Chemother, 2007).

The assay deals with Staphylococcus aureus. Nature of the assay: Antibacterial activity against methicillin-resistant Staphylococcus aureus COL infected New Zealand white rabbit endocarditis model assessed as reduction in mean aortic vegetation titer at 30 mg/kg, iv twice daily after 4 days. The assay is classed as functional, Aorta.

In the case of `CN[C@H](CC(C)C)C(=O)N[C@H]1C(=O)N[C@@H](CC(N)=O)C(=O)N[C@H]2C(=O)N[C@H]3C(=O)N[C@H](C(=O)N[C@H](C(=O)O)c4cc(O)cc(O)c4-c4cc3ccc4O)[C@H](O)c3ccc(c(Cl)c3)Oc3cc2cc(c3O[C@@H]2O[C@H](CO)[C@@H](O)[C@H](O)[C@H]2O[C@H]2C[C@](C)(N)[C@H](O)[C@H](C)O2)Oc2ccc(cc2Cl)[C@H]1O` [VANCOMYCIN], the log10CFU/g is 3.4.
